From PubChem BioAssay AID330 (DTP/NCI, 2004)
Values joined by “and” are separate entries in the source; they are usually repeats but may differ in a detail not shown here. Equal values may be shown once. Inconclusive results and toxic doses are left out.

Tested on: P388 leukemia ip, CD2F1 mice, survival T/C
Assay: NCI In Vivo Anticancer Drug Screen. Data for tumor model P388 Leukemia (intraperitoneal) in CD2F1 (CDF1) mice
Details: endpoint: median survival time, higher = longer survival
Summary of the method: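 Mice carrying the transplanted tumor received test compound or vehicle. Survival was recorded in each group, and the value is the treated-group measurement divided by that of the vehicle-treated control group.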

[1] = dose: 6.25 mg/kg/injection, schedule: Q01DX009 (ip), vehicle: saline with Tween-80
[2] = dose: 12.5 mg/kg/injection, schedule: Q01DX009 (ip), vehicle: saline with Tween-80
[3] = dose: 25.0 mg/kg/injection, schedule: Q01DX009 (ip), vehicle: saline with Tween-80
[4] = dose: 50.0 mg/kg/injection, schedule: Q01DX009 (ip), vehicle: saline with Tween-80
[5] = dose: 100.0 mg/kg/injection, schedule: Q01DX009 (ip), vehicle: saline with Tween-80
[6] = dose: 50.0 mg/kg/injection, schedule: Q01DX005 (ip), vehicle: saline with Tween-80
[7] = dose: 100.0 mg/kg/injection, schedule: Q01DX005 (ip), vehicle: saline with Tween-80
[8] = dose: 200.0 mg/kg/injection, schedule: Q01DX005 (ip), vehicle: saline with Tween-80
[9] = dose: 100.0 mg/kg/injection, schedule: Q04DX003 (ip), vehicle: saline with Tween-80

## O=C(c1ccccc1)c1cccs1
dose: 22.0 mg/kg/injection, schedule: Q01DX009 (ip), vehicle: saline with Tween-80
  T/C: 113 % of control
dose: 44.0 mg/kg/injection, schedule: Q01DX009 (ip), vehicle: saline with Tween-80
  T/C: 104 % of control
dose: 88.0 mg/kg/injection, schedule: Q01DX009 (ip), vehicle: saline with Tween-80
  T/C: 109 % of control

## COc1cccc2c1C(=O)c1c(cc3c(c1O)[C@@H](OC1CC(NC(=O)c4ccc(N=[N+]=[N-])cc4)C(O)C(C)O1)C[C@](O)(C(C)=O)C3)C2=O (some centres not stated)
dose: 6.25 mg/kg/injection, schedule: Q04DX003 (ip), vehicle: olive oil, sesame oil, peanut oil
  T/C: 100 % of control
dose: 12.5 mg/kg/injection, schedule: Q04DX003 (ip), vehicle: olive oil, sesame oil, peanut oil
  T/C: 97 % of control
dose: 25.0 mg/kg/injection, schedule: Q04DX003 (ip), vehicle: olive oil, sesame oil, peanut oil
  T/C: 100 % of control
dose: 50.0 mg/kg/injection, schedule: Q04DX003 (ip), vehicle: olive oil, sesame oil, peanut oil
  T/C: 112 % of control

## Cc1ccc(C(C(=O)O)(c2ccc(C)cc2)C(O)C(=O)O)cc1 (configuration not stated)
dose: 100.0 mg/kg/injection, schedule: Q01DX001 (ip), vehicle: Klucel (hydroxypropylcellulose) (HPC)
  T/C: 107 % of control
dose: 200.0 mg/kg/injection, schedule: Q01DX001 (ip), vehicle: Klucel (hydroxypropylcellulose) (HPC)
  T/C: 107 % of control
dose: 400.0 mg/kg/injection, schedule: Q01DX001 (ip), vehicle: Klucel (hydroxypropylcellulose) (HPC)
  T/C: 105 % of control

## COc1cc(C(Nc2ccccn2)c2cc3c(cc2OC(C)=O)OCO3)cc(OC)c1OC (configuration not stated)
dose: 60.0 mg/kg/injection, schedule: Q01DX005 (ip), vehicle: saline with Tween-80
  T/C: 104 % of control
dose: 120.0 mg/kg/injection, schedule: Q01DX005 (ip), vehicle: saline with Tween-80
  T/C: 97 % of control
dose: 240.0 mg/kg/injection, schedule: Q01DX005 (ip), vehicle: saline with Tween-80
  T/C: 88 % of control

## CC[CH2][Pb]([CH2]CC)([CH2]CC)[O]C(=O)C(F)(F)F
dose: 3.13 mg/kg/injection, schedule: Q01DX009 (ip), vehicle: saline
  T/C: 117 % of control

## COc1cc(Br)c(C2=C3c4cc(OC)c(OC)cc4CCN3C(=O)C2=O)cc1OC
dose: 50.0 mg/kg/injection, schedule: Q01DX005 (ip), vehicle: Klucel (hydroxypropylcellulose) (HPC)
  T/C: 99 % of control
dose: 100.0 mg/kg/injection, schedule: Q01DX005 (ip), vehicle: Klucel (hydroxypropylcellulose) (HPC)
  T/C: 93 % of control
dose: 200.0 mg/kg/injection, schedule: Q01DX005 (ip), vehicle: Klucel (hydroxypropylcellulose) (HPC)
  T/C: 90 % of control

## CNc1ccc(Nc2c3ccccc3nc3ccccc23)cc1
dose: 6.25 mg/kg/injection, schedule: Q04DX002 (ip), vehicle: distilled water + Tween-80
  T/C: 109 % of control
dose: 12.5 mg/kg/injection, schedule: Q04DX002 (ip), vehicle: distilled water + Tween-80
  T/C: 120 % of control and 124 % of control
dose: 25.0 mg/kg/injection, schedule: Q04DX002 (ip), vehicle: distilled water + Tween-80
  T/C: 118 % of control
dose: 50.0 mg/kg/injection, schedule: Q04DX002 (ip), vehicle: distilled water + Tween-80
  T/C: 160 % of control
dose: 100.0 mg/kg/injection, schedule: Q04DX002 (ip), vehicle: distilled water + Tween-80
  T/C: 194 % of control and 232 % of control

## CCCCC(CC)C(=O)NCCCN(C)C (configuration not stated)
dose: 50.0 mg/kg/injection, schedule: Q01DX005 (ip), vehicle: saline
  T/C: 99 % of control
dose: 100.0 mg/kg/injection, schedule: Q01DX005 (ip), vehicle: saline
  T/C: 99 % of control
dose: 200.0 mg/kg/injection, schedule: Q01DX005 (ip), vehicle: saline
  T/C: 94 % of control

## NC(=S)N/N=C/c1ccc(OC(=O)COc2ccc(Cl)cc2)cn1
dose: 3.12 mg/kg/injection, schedule: Q01DX009 (ip), vehicle: saline with Tween-80
  T/C: 118 % of control
[1]
  T/C: 159 % of control
[2]
  T/C: 156 % of control and 157 % of control
[3]
  T/C: 184 % of control
[4]
  T/C: 188 % of control and 189 % of control
[5]
  T/C: 225 % of control and 88 % of control
dose: 200.0 mg/kg/injection, schedule: Q01DX009 (ip), vehicle: saline with Tween-80
  T/C: 86 % of control

## NC(=O)c1cc([N+](=O)[O-])cnc1Sc1ncn[nH]1
dose: 50.0 mg/kg/injection, schedule: Q01DX009 (ip), vehicle: Klucel (hydroxypropylcellulose) (HPC)
  T/C: 98 % of control
dose: 100.0 mg/kg/injection, schedule: Q01DX009 (ip), vehicle: Klucel (hydroxypropylcellulose) (HPC)
  T/C: 107 % of control

## ClC(Cl)(Cl)CN1CCCCC1Cc1ccccc1 (configuration not stated)
dose: 30.0 mg/kg/injection, schedule: Q01DX005 (ip), vehicle: Klucel (hydroxypropylcellulose) (HPC)
  T/C: 101 % of control
dose: 60.0 mg/kg/injection, schedule: Q01DX005 (ip), vehicle: Klucel (hydroxypropylcellulose) (HPC)
  T/C: 100 % of control

## Cn1c2c(c(=O)n(C)c1=O)CN(Cc1ccccc1)CN2
[6]
  T/C: 95 % of control
[7]
  T/C: 95 % of control
[8]
  T/C: 100 % of control

## O=c1nc(Oc2ccccc2)nc2ncccn12
[1]
  T/C: 101 % of control
[2]
  T/C: 112 % of control
[4]
  T/C: 114 % of control

## CC(C)C(CC(=O)O)C(=O)O (configuration not stated)
[6]
  T/C: 100 % of control
[7]
  T/C: 91 % of control
[8]
  T/C: 104 % of control

## COc1ccc(C2N(C)CCCN2C)c(OC)c1
dose: 6.25 mg/kg/injection, schedule: Q01DX009 (ip), vehicle: saline sonified
  T/C: 100 % of control
dose: 12.5 mg/kg/injection, schedule: Q01DX009 (ip), vehicle: saline sonified
  T/C: 105 % of control
dose: 25.0 mg/kg/injection, schedule: Q01DX009 (ip), vehicle: saline sonified
  T/C: 100 % of control

## COc1ccc(N2C(=O)C3C4C=CC(C3C2=O)N(C)C4=O)cc1 (configuration not stated)
dose: 100.0 mg/kg/injection, schedule: Q04DX002 (ip), vehicle: saline with Tween-80
  T/C: 101 % of control
dose: 200.0 mg/kg/injection, schedule: Q04DX002 (ip), vehicle: saline with Tween-80
  T/C: 98 % of control
dose: 400.0 mg/kg/injection, schedule: Q04DX002 (ip), vehicle: saline with Tween-80
  T/C: 87 % of control

## Cc1nc(N)c2nc(SCc3ccc(Cl)cc3)c(N)nc2n1
dose: 25.0 mg/kg/injection, schedule: Q04DX003 (ip), vehicle: saline with Tween-80
  T/C: 100 % of control
dose: 50.0 mg/kg/injection, schedule: Q04DX003 (ip), vehicle: saline with Tween-80
  T/C: 90 % of control
[9]
  T/C: 92 % of control

## NNc1nc2ccccc2s1
[2]
  T/C: 105 % of control
[3]
  T/C: 107 % of control
[4]
  T/C: 98 % of control

## CC(C)N=Cc1ccccc1O.CC(C)N=Cc1ccccc1O.[Zn]
dose: 25.0 mg/kg/injection, schedule: Q04DX003 (ip), vehicle: saline sonified
  T/C: 100 % of control
dose: 50.0 mg/kg/injection, schedule: Q04DX003 (ip), vehicle: saline sonified
  T/C: 100 % of control
dose: 100.0 mg/kg/injection, schedule: Q04DX003 (ip), vehicle: saline sonified
  T/C: 104 % of control

## C=CCN(CC=C)c1ncnc2[nH]ncc12
[9]
  T/C: 100 % of control
dose: 200.0 mg/kg/injection, schedule: Q04DX003 (ip), vehicle: saline with Tween-80
  T/C: 100 % of control
dose: 400.0 mg/kg/injection, schedule: Q04DX003 (ip), vehicle: saline with Tween-80
  T/C: 100 % of control

## CCC[CH2][Sn]([CH2]CCC)([CH2]CCN(C)C)[CH2]CCN(C)C
[4]
  T/C: 97 % of control
[5]
  T/C: 104 % of control

## Cc1ccc2nc(NC(=O)OCc3ccccc3)sc2c1
dose: 6.25 mg/kg/injection, schedule: Q01DX009 (ip), vehicle: Klucel (hydroxypropylcellulose) (HPC)
  T/C: 97 % of control
dose: 12.5 mg/kg/injection, schedule: Q01DX009 (ip), vehicle: Klucel (hydroxypropylcellulose) (HPC)
  T/C: 101 % of control
